From patent US12378193B2, “Anti-arrhythmicity agents” (The Regents of the University of California, priority 2014, dated 2025)

How the values were obtained:
VDAC2 = experiment: Affinity bead pull down from zebrafish embryo lysate with mass spectrometry; format: binding; details: zebrafish embryonic lysate, affinity agarose beads
Experimental: For pull down assays mono-N-Boc protected 2,2′-(ethylenedioxy)bis(ethylamine) was attached to the carboxylic ester of efsevin and its derivatives through the amide bond. After removal of the Boc group using TFA, the primary amine was coupled to the carboxylic acid of Affi-Gel 10 Gel (Biorad). Two-day-old zebrafish embryos were deyolked by centrifugation before being lysed with Rubinfeld's lysis buffer (Rubinfeld et al., 1993, Science 262, 1731-1734). The lysate was precleaned by incubation with Affi-Gel 10 Gel to eliminate non-specific binding. Precleaned lysate was incubated with affinity beads overnight. Proteins were eluted from the affinity beads and separated on SDS-PAGE. Protein bands of interest were excised. Gel plugs were dehydrated in acetonitrile (ACN) and dried completely in a Speedvac. Samples were reduced and alkylated with 10 mM dithiotreitol and 10 mM TCEP solution in 50 mM NH4HCO3 (30 min at 56° C.) and 100 mM iodoacetamide (45 min in dark), respectively. Gel plugs were washed with 50 mM NH4HCO3, dehydrated with ACN, and dried down in a Speedvac. Gel pieces were then swollen in digestion buffer containing 50 mM NH4HCO3, and 20.0 ng/μL of chymotrypsin (25° C., overnight). Peptides were extracted with 0.1% TFA in 50% ACN solution, dried down and resuspended in LC buffer A (0.1% formic acid, 2% ACN).
Extracted peptides were analyzed by nano-flow LC/MS/MS on a Thermo Orbitrap with dedicated Eksigent nanopump using a reversed phase column (New Objective). The flow rate was 200 nL/min for separation: mobile phase A contained 0.1% formic acid, 2% ACN in water, and mobile phase B contained 0.1% formic acid, 20% water in ACN. The gradient used for analyses was linear from 5% B to 50% B over 60 min, then to 95% B over 15 min, and finally keeping constant 95% B for 10 min. Spectra were acquired in data-dependent mode with dynamic exclusion where the instrument selects the top six most abundant ions in the parent spectra for fragmentation. […]

HeLa cells = experiment: Mitochondria Ca2+ uptake assay in HeLa cells; format: cell-based; details: permeabilized cells, 1 μM efsevin, Rhod2
Experimental: HeLa cells were transfected with zebrafish VDAC2 using Lipofectamine™ 2000 (Invitrogen). 36 hrs after transfection, cells were loaded with 5 μM Rhod2-AM (Invitrogen), a Ca^2+ indicator preferentially localized in mitochondria, for 1 hour at 15° C. followed by a 30 min de-esterification period at 37° C. Subsequently, cells were permeabilized with 100 μM digitonin for 1 min at room temperature. Fluorescence changes in Rhod2 (ex: 544 nm, em: 590 nm) immediately after the addition of Ca^2+ (final free Ca^2+ concentration is calculated to be approximately 10 μM using WEBMAXC at http://web.stanford.edu/˜cpatton/webmaxcS.htm) were monitored in internal buffer (5 mM K-EGTA, 20 mM HEPES, 100 mM K-aspartate, 40 mM KCl, 1 mM MgCl2, 2 mM maleic acid, 2 mM glutamic acid, 5 mM pyruvic acid, 0.5 mM KH2PO4, 5 mM MgATP, pH adjusted to 7.2 with Trizma base) using a FLUOSTAR plate reader (BMG Labtech).

NCX1hMO injected embryos = experiment: Restoration of coordinated cardiac contractions in NCX1h morpholino embryos; format: in vivo, zebrafish; details: for embryos with coordinated contractions: VDAC2^zfn/zfn
Experimental: VDAC2 mRNA and morpholino antisense oligos (5′-[…]-3′) (Genetools) (SEQ ID NO: 9) were injected into one-cell stage embryos collected from crosses of tre^tc318 heterozygotes. Cardiac performance was analyzed by visual inspection on 1 dpf. The tre mutant embryos were identified either by observing the fibrillation phenotype at 2-3 dpf or by genotyping as previously described (Langenbacher et al., 2005).
Chemicals from a synthetic library (Castellano et al., 2007, J Am Chem Soc 129, 5843-5845; Choi et al., 2011, Development 138, 1173-1181; Cruz et al., 2011, Proc Natl Acad Sci USA 108, 6769-6774) and from Biomol International LP were screened for their ability to partially or completely restore persistent heartbeat in tre embryos. 12 embryos collected from crosses of tre^tc318 heterozygotes were raised in the presence of individual compounds at a concentration of 10 μM from 4 hpf (Choi et al., 2011). Cardiac function was analyzed by visual inspection at 1 and 2 dpf. The hearts of tre^tc318 embryos manifest a chaotic movement resembling cardiac fibrillation with intermittent contractions in rare occasion (Ebert et al., 2005; Langenbacher et al., 2005). Compounds that elicit persistent coordinated cardiac contractions were validated on large number of tre mutant embryos and NCX1h morphants (>500 embryos).

[1] = efsevin treatment, NCX1MO embryos

SMILES: CCOC(=O)C1=CCN(S(=O)(=O)c2ccc(C)cc2)C1c1ccccc1 (stereo not drawn) [efsevin]
- pull down of the 32 kD band (VDAC2) (VDAC2): pulled down
- mitochondrial Ca2+ uptake after addition of Ca2+ (HeLa cells): increased mitochondrial Ca^2+ uptake
- embryos with coordinated cardiac contractions (NCX1hMO injected embryos; [1]): 76.2±8.7%
- embryos with coordinated contractions (NCX1hMO injected embryos; [1]): 54.1±3.6%
- embryos with coordinated contractions (NCX1hMO injected embryos; efsevin treatment, VDAC1MO, NCX1MO embryos): 35.7±7.1%
- restoration of rhythmic contractions in NCX1hMO injected embryos (NCX1hMO injected embryos; linker-attached compounds): retained their ability to restore rhythmic contractions
